From patent US11530222B2, “Substituted pyrrolopyrimidine and pyrazolopyrimidine as Bruton's tyrosine kinase (BTK) degraders” (ACCUTAR BIOTECHNOLOGY INC., priority 2021, dated 2022) come the findings set out here.

Structures are written as SMILES. Where only a bound is given, the exact number is not on record here.

This assay addresses T1, BTK (Homo sapiens, UniProt Q06187).
T1 construct: BTK Degradative Activity of Exemplary Compounds of the Present Disclosure in a RAMOS Cell Line; host or cells: RAMOS
The experiment in a line: BTK degradative activity in a RAMOS cell line (Western blot). The assay is classed as cell-based. To be noted: 6 hours after administration, read-out: RAMOS BTK Degradation DC50. As to the method:
RAMOS (ATCC) cells were plated in 24-well plates at 8×10^5 cells/well in the RPMI growth medium containing 10% heat-inactivated FBS and 1× Penicillin Streptomycin, and then incubated at 37° C. overnight. The following day, the test compound was administered to the cells by using 1000× compound stock solution prepared in DMSO at various concentrations. After administration of the compound, the cells were then incubated at 37° C. for 6 hours.
Upon completion, the cells were collected by centrifugation and lysed in Laemmli sample buffer (1×; VWR International). Proteins in cell lysate were separated by SDS-PAGE and transferred to Odyssey nitrocellulose membranes (Licor) with Iblot® dry blotting transfer system (ThermoFisher). Nonspecific binding was blocked by incubating membranes with Intercept Blocking Buffer (Licor) for 1 hour at room temperature with gentle shaking. The membranes were then incubated overnight at 4° C. with primary antibodies anti-BTK (Cell signaling, cat. #8547) and anti-GAPDH (Cell signaling, cat. #5179) diluted in Intercept Blocking Buffer containing 0.1% Tween 20. After washing 3 times with TBS-T, the membranes were incubated with IRDye® 800CW goat anti-mouse IgG (1:20,000, Licor) or IRDye® 800CW goat anti-rabbit IgG (1:20,000, Licor) for 1 hour. After TBS-T washes, membranes were rinsed in TBS and scanned on Odyssey® CLx Imaging System (Licor). The bands were quantified using Image Studio™ Software (Licor).
Table 3 summarizes the BTK degradative activity of exemplary compounds of the present disclosure in a RAMOS cell line 6 hours after administration. The DC50 values (i.e., the concentration of test compound at which 50% of the target protein is degraded) were calculated. A designation of “A” corresponds to a DC50 value less than 10 nM. A designation of “B” corresponds to a DC50 value greater than or equal to 10 nM and less than 100 nM. A designation of “C” corresponds to a DC50 value greater than or equal to 100 nM.
For orientation: In western blotting, separated proteins are transferred to a membrane and probed.

T1 sequence (Q06187 whole entry): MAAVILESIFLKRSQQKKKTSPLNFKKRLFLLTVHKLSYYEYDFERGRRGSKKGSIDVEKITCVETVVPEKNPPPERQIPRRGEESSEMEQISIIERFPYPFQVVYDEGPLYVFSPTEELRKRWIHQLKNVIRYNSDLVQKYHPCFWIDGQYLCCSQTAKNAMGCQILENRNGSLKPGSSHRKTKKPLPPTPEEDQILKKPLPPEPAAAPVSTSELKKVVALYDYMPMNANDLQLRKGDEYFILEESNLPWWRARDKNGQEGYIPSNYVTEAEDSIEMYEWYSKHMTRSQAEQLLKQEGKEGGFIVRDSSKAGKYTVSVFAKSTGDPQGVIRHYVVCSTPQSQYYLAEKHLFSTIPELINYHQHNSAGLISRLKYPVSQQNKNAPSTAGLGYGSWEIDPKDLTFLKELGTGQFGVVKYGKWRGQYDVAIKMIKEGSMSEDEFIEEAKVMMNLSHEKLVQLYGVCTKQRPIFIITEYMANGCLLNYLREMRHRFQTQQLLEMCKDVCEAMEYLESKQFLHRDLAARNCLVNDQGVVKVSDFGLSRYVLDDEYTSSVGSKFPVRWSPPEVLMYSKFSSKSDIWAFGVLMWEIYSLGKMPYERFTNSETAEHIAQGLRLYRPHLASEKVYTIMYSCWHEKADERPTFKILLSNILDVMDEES

What is called DC50 is the midpoint of the concentration-degradation curve. On to `O=C1CCC(N2C(=O)c3ccc(N4CCN(CCCCC(=O)N5CCC[C@@H](Nc6ncnc7[nH]cc(C(=O)c8ccc(Oc9ccccc9)cc8Cl)c67)C5)CC4)cc3C2=O)C(=O)N1` (stereo partly drawn) [Compound 11, 5-(4-(5-((R)-3-((5-(2-chloro-4-phenoxybenzoyl)-7H-pyrrolo[2,3-d]pyrimidin-4-yl)amino)piperidin-1-yl)-5-oxopentyl)piperazin-1-yl)-2-(2,6-dioxopiperidin-3-yl)isoindoline-1,3-dione], for which the DC50 is 0.01 to 0.1 µM.
As for `O=C1CC[C@H](N2C(=O)c3ccc(N4CCN(CC5CCN(C(=O)N6CCC[C@@H](Nc7ncnc8[nH]cc(C(=O)c9ccc(Oc%10ccccc%10)cc9Cl)c78)C6)CC5)CC4)cc3C2=O)C(=O)N1` [Compound 33, 5-(4-((1-((R)-3-((5-(2-chloro-4-phenoxybenzoyl)-7H-pyrrolo[2,3-d]pyrimidin-4-yl)amino)piperidine-1-carbonyl)piperidin-4-yl)methyl)piperazin-1-yl)-2-((S)-2,6-dioxopiperidin-3-yl)isoindoline-1,3-dione], the figure is 0.01 to 0.1 µM; as for `COc1ccc(C(=O)N2CCC(N3CCC(CC(=O)N4CCC[C@@H](Nc5ncnc6[nH]cc(C(=O)c7ccc(Oc8ccccc8)cc7Cl)c56)C4)CC3)CC2)cc1N1CCC(=O)NC1=O` [Compound 77, (R)-1-(5-(4-(2-(3-((5-(2-chloro-4-phenoxybenzoyl)-7H-pyrrolo[2,3-d]pyrimidin-4-yl)amino)piperidin-1-yl)-2-oxoethyl)-[1,4′-bipiperidine]-1′-carbonyl)-2-methoxyphenyl) dihydropyrimidine-2,4(1H,3H)-dione], at least 0.1 µM.
As for `O=C1CCC(N2C(=O)c3ccc(N4CCN(CCCCCC(=O)N5CCC[C@@H](Nc6ncnc7[nH]cc(C(=O)c8ccc(Oc9ccccc9)cc8Cl)c67)C5)CC4)cc3C2=O)C(=O)N1` (stereo partly drawn) [Compound 7, 5-(4-(6-((R)-3-((5-(2-chloro-4-phenoxybenzoyl)-7H-pyrrolo[2,3-d]pyrimidin-4-yl)amino)piperidin-1-yl)-6-oxohexyl)piperazin-1-yl)-2-(2,6-dioxopiperidin-3-yl)isoindoline-1,3-dione], the figure is 0.01 to 0.1 µM.
For `O=C1CCC(N2C(=O)c3cccc(C#CCCCCCCC(=O)N4CCC(Nc5ncnc6[nH]cc(C(=O)c7ccc(Oc8ccccc8)cc7Cl)c56)CC4)c3C2=O)C(=O)N1` (stereo not drawn) [Compound 35, 4-(9-(4-((5-(2-chloro-4-phenoxybenzoyl)-7H-pyrrolo[2,3-d]pyrimidin-4-yl)amino)piperidin-1-yl)-9-oxonon-1-yn-1-yl)-2-(2,6-dioxopiperidin-3-yl)isoindoline-1,3-dione] the value was at least 0.1 µM.
Turning to `O=C1CCC(N2C(=O)c3ccc(N4CCN(c5ccc(C(=O)N6CCC[C@@H](Nc7ncnc8[nH]cc(C(=O)c9ccc(Oc%10ccccc%10)cc9Cl)c78)C6)cn5)CC4)cc3C2=O)C(=O)N1` (stereo partly drawn) [Compound 2, 5-(4-(5-((R)-3-((5-(2-chloro-4-phenoxybenzoyl)-7H-pyrrolo[2,3-d]pyrimidin-4-yl)amino)piperidine-1-carbonyl)pyridin-2-yl)piperazin-1-yl)-2-(2,6-dioxopiperidin-3-yl)isoindoline-1,3-dione], the DC50 is at least 0.1 µM.
As for `COc1ccc(C(=O)N2CCC(N3CCC(CC(=O)N4CCC(Nc5ncnc6[nH]cc(C(=O)c7ccc(Oc8ccccc8)cc7Cl)c56)CC4)CC3)CC2)cc1N1CCC(=O)NC1=O` [Compound 73, 1-(5-(4-(2-(4-((5-(2-chloro-4-phenoxybenzoyl)-7H-pyrrolo[2,3-d]pyrimidin-4-yl)amino)piperidin-1-yl)-2-oxoethyl)-[1,4′-bipiperidine]-1′-carbonyl)-2-methoxyphenyl)dihydropyrimidine-2,4(1H,3H)-dione], the figure is 0.01 to 0.1 µM; as for `O=C1CC[C@H](N2Cc3cc(N4CCN(C5CC(CC(=O)N6CCC(Nc7ncnc8[nH]cc(C(=O)c9ccc(Oc%10ccccc%10)cc9Cl)c78)CC6)C5)CC4)ccc3C2=O)C(=O)N1` (stereo partly drawn) [Compound 42, (S)-3-(5-(4-(3-(2-(4-((5-(2-chloro-4-phenoxybenzoyl)-7H-pyrrolo[2,3-d]pyrimidin-4-yl)amino)piperidin-1-yl)-2-oxoethyl)cyclobutyl)piperazin-1-yl)-1-oxoisoindolin-2-yl)piperidine-2,6-dione], under 0.01 µM.
As for `O=C1CCC(N2C(=O)c3ccc(N4CCN(CCCCCN5CCC[C@@H](Nc6ncnc7[nH]cc(C(=O)c8ccc(Oc9ccccc9)cc8Cl)c67)C5)CC4)cc3C2=O)C(=O)N1` (stereo partly drawn) [Compound 30, 5-(4-(5-((R)-3-((5-(2-chloro-4-phenoxybenzoyl)-7H-pyrrolo[2,3-d]pyrimidin-4-yl)amino)piperidin-1-yl)pentyl)piperazin-1-yl)-2-(2,6-dioxopiperidin-3-yl)isoindoline-1,3-dione], the figure is at least 0.1 µM.
For `O=C1CCC(N2C(=O)c3ccc(N4CCN(CCCCCCCN5CCC[C@@H](Nc6ncnc7[nH]cc(C(=O)c8ccc(Oc9ccccc9)cc8Cl)c67)C5)CC4)cc3C2=O)C(=O)N1` (stereo partly drawn) [Compound 29, 5-(4-(7-((R)-3-((5-(2-chloro-4-phenoxybenzoyl)-7H-pyrrolo[2,3-d]pyrimidin-4-yl)amino)piperidin-1-yl)heptyl)piperazin-1-yl)-2-(2,6-dioxopiperidin-3-yl)isoindoline-1,3-dione] the value was 0.01 to 0.1 µM.
Consider `O=C1CCC(N2Cc3cc(N4CCN(CCCCCCC(=O)N5CCC[C@@H](Nc6ncnc7[nH]cc(C(=O)c8ccc(Oc9ccccc9)cc8Cl)c67)C5)CC4)ccc3C2=O)C(=O)N1` (stereo partly drawn) [Compound 17, 3-(5-(4-(7-((R)-3-((5-(2-chloro-4-phenoxybenzoyl)-7H-pyrrolo[2,3-d]pyrimidin-4-yl)amino)piperidin-1-yl)-7-oxoheptyl)piperazin-1-yl)-1-oxoisoindolin-2-yl)piperidine-2,6-dione], for which the DC50 is 0.01 to 0.1 µM.
For `O=C1CCC(N2C(=O)c3ccc(N4CCN(CC5CCN(c6ccc(Nc7ncnc8[nH]cc(C(=O)c9ccc(Oc%10ccccc%10)cc9Cl)c78)cc6F)CC5)CC4)cc3C2=O)C(=O)N1` (stereo not drawn) [Compound 47, 5-(4-((1-(4-((5-(2-chloro-4-phenoxybenzoyl)-7H-pyrrolo[2,3-d]pyrimidin-4-yl)amino)-2-fluorophenyl)piperidin-4-yl)methyl)piperazin-1-yl)-2-(2,6-dioxopiperidin-3-yl)isoindoline-1,3-dione] the value was at least 0.1 µM.
For `O=C1CC[C@H](N2Cc3cc(N4CCN(CCC5CCN(c6ccc(Nc7ncnc8[nH]cc(C(=O)c9ccc(Oc%10ccccc%10)cc9Cl)c78)cc6F)CC5)CC4)ccc3C2=O)C(=O)N1` [Compound 45, (S)-3-(5-(4-(2-(1-(4-((5-(2-chloro-4-phenoxybenzoyl)-7H-pyrrolo[2,3-d]pyrimidin-4-yl)amino)-2-fluorophenyl)piperidin-4-yl)ethyl)piperazin-1-yl)-1-oxoisoindolin-2-yl)piperidine-2,6-dione], the DC50 was at least 0.1 µM.
As for `O=C1CCC(N2Cc3c(C#CCCCCCCC(=O)N4CCC(Nc5ncnc6[nH]cc(C(=O)c7ccc(Oc8ccccc8)cc7Cl)c56)CC4)cccc3C2=O)C(=O)N1` (stereo not drawn) [Compound 39, 3-(4-(9-(4-((5-(2-chloro-4-phenoxybenzoyl)-7H-pyrrolo[2,3-d]pyrimidin-4-yl)amino)piperidin-1-yl)-9-oxonon-1-yn-1-yl)-1-oxoisoindolin-2-yl)piperidine-2,6-dione], the figure is at least 0.1 µM.
Consider `O=C1CCC(N2C(=O)c3ccc(N4CCN(CCCCCCN5CCC(Nc6ncnc7[nH]cc(C(=O)c8ccc(Oc9ccccc9)cc8Cl)c67)CC5)CC4)cc3C2=O)C(=O)N1` (stereo not drawn) [Compound 18, 5-(4-(6-(4-((5-(2-chloro-4-phenoxybenzoyl)-7H-pyrrolo[2,3-d]pyrimidin-4-yl)amino)piperidin-1-yl)hexyl)piperazin-1-yl)-2-(2,6-dioxopiperidin-3-yl)isoindoline-1,3-dione], for which the DC50 was at least 0.1 µM.
For `O=C1CCC(N2C(=O)c3ccc(N4CCN(CCCCCCC(=O)N5CCC[C@@H](Nc6ncnc7[nH]cc(C(=O)c8ccc(Oc9ccccc9)cc8Cl)c67)C5)CC4)cc3C2=O)C(=O)N1` (stereo partly drawn) [Compound 8] the value was 0.01 to 0.1 µM; for `O=C1CC[C@H](N2C(=O)c3ccc(N4CCN(CCCCCCC(=O)N5CCC(Nc6ncnc7[nH]cc(C(=O)c8ccc(Oc9ccccc9)cc8Cl)c67)CC5)CC4)cc3C2=O)C(=O)N1` [Compound 22, 5-(4-(7-(4-((5-(2-chloro-4-phenoxybenzoyl)-7H-pyrrolo[2,3-d]pyrimidin-4-yl)amino)piperidin-1-yl)-7-oxoheptyl)piperazin-1-yl)-2-(2,6-dioxopiperidin-3-yl)isoindoline-1,3-dione], 0.01 to 0.1 µM; for `O=C1CCC(N2C(=O)c3ccc(N4CCN(Cc5ccc(C(=O)N6CCC[C@@H](Nc7ncnc8[nH]cc(C(=O)c9ccc(Oc%10ccccc%10)cc9Cl)c78)C6)cn5)CC4)cc3C2=O)C(=O)N1` (stereo partly drawn) [Compound 9, 5-(4-((5-((R)-3-((5-(2-chloro-4-phenoxybenzoyl)-7H-pyrrolo[2,3-d]pyrimidin-4-yl)amino)piperidine-1-carbonyl)pyridin-2-yl)methyl)piperazin-1-yl)-2-(2,6-dioxopiperidin-3-yl)isoindoline-1,3-dione], 0.01 to 0.1 µM.
